Laboratory results from patent US11426367B2, “Methods of treating substance abuse” (Perception Neuroscience, Inc., priority 2018, dated 2022).
Entries after “also recorded” stand apart in the source; their conditions may differ.

What was measured:
[1] = tested on: medial forebrain bundle self-stimulation in rats; details: doses 5.6, 10 mg/kg, Hillhouse et al., 2014; cited from earlier work
[2] = tested on: rewarding effects of morphine; details: Table 11, Suzuki et al., 2000; cited from earlier work
[3] = tested on: Control C57/B6 mice; assay: Conditioned place preference test (dependence test) in control mice; details: control mice, 10 mg/kg
Description: 15-minute habituation was performed for 3 days. Then, 30-minute conditioning was performed on day 4 to day 10, and a behavioral evaluation test was performed on day 11. Saline was injected on day 5, day 7, and day 9. […] In each of the groups, the injection was performed three times, i.e., on day 4, day 6, and day 8. Saline means a group injected with saline.
The administration of an agent was performed by the same methods as the methods described in Example 2.
The place preference test was performed using a conditioned place preference test apparatus (BrainScienceIdea Co., Ltd., Osaka, Japan). The analysis of the results of the place preference test was performed by one-way analysis of variance (one-way ANOVA), followed by a least significant difference test (LSD test). Data are presented as the mean plus minus standard error of the mean (n=9 or 10 mice/group). *p<0.05 and **p<0.01 indicate significant differences as compared to a group injected with saline.

[4] = tested on: patients with depression; details: oral; Non Patent Literatures 15 and 16; cited from earlier work
[5] = tested on: Morphine Seizures; details: Not blocked by naloxone; Kolesnikov et al., 1997; cited from earlier work
[6] = tested on: development of drug tolerance to ethanol; details: tilt-plane test, Khanna et al., 1993; cited from earlier work
[7] = tested on: medial forebrain bundle self-stimulation in rats; assay: Intracranial self-stimulation (ICSS), frequency-rate procedure; details: for M50, Test, mean log M50 frequency (SEM) / Threshold (T0), Test, mean log T0 frequency (SEM) / M50, Baseline, mean log M50 frequency (SEM) / Threshold (T0), Baseline, mean log T0 frequency (SEM): 10 rats
[8] = tested on: morphine withdrawal signs in rats; assay: Naloxone-precipitated withdrawal from subchronic morphine; assay type: in vivo; details: 0.25 mg/kg i.p. before naloxone 1 mg/kg SC, morphine 10 mg/kg SC b.i.d.
Description: Forty (40) male Wistar rats served as test subjects in this study. Animals were pair housed with unrestricted access to rodent chow and water (SOP ROD.03.01, SOP ROD.04.01, SOP ROD.18). […] All experimental activity occurring during the animals' light cycle. All animal use procedures were performed in accordance with the principles of the Canadian Council on Animal Care (CCAC).
Forty (40) male Wistar rats were assigned to 5 groups of N=8 rats per group. Group A was dosed with saline vehicle (Sal; subcutaneous (SC) route) twice daily (approx. 08:00±1 h and 18:00±1 h) for 12 days. […] This treatment regimen was designed to induce opioid dependence (Erami et al., 2012). […] On days 9 and 12, rats were tested for naloxone precipitated withdrawal. According to a cross-over design (see Table 4: Treatment Groups), all rats in each group received either acute saline, or naloxone hydrochloride (1 mg/kg; dose volume 2 ml/kg) injection by the SC route, 5 minutes prior to behavioral testing. […] Lofexidine doses are based on literature values (e.g. Shearman et al., 1979). Immediately after vehicle or naloxone injection, rats were transferred to activity chambers for 30 minutes where the animals were visually assessed for somatic signs associated with opioid withdrawal (e.g. writhes, chews, ptosis, WDS, shakes, tremor, penile grooming, body weight change; see Higgins and Sellers, 1994). Simultaneously, the activity pattern (distance travelled, rearing) of each rat was automatically recorded.
Locomotor activity. Spontaneous activity in the rats was measured with the automated Med Associates activity test chamber for 30 minutes with 10-minute time bins. The tracking arena was 17″W×17″L×12″H, sensor bars are secured 1″ above the floor to track distance travelled, and a second set of sensor bars are placed ˜5″ above the floor to measure vertical movement and rearing activity. The parameters set on the tracking software were as follows: resolution—50 milliseconds (ms), box size—4 beams, resting delay—500 ms, and ambulatory trigger—2 (SOP ROD.25). […]

[9] = 3 mg/kg i.p. 2 hours prior to test session
[10] = 10 mg/kg i.p. 2 hours prior to test session
[11] = 30 mg/kg i.p. 2 hours prior to test session
[12] = baseline session before dosing on the 3 mg/kg test day
[13] = baseline session before dosing on the 10 mg/kg test day
[14] = baseline session before dosing on the 30 mg/kg test day

## CNC1(c2ccccc2Cl)CCCCC1=O (racemic) [RS(+/−)-ketamine]
[1]
  ICSS, anhedonia: 5.6, 10 anhedonia
[2]
  Morphine CPP, dose blocking the rewarding effects of morphine: 10 mg/kg
[3]
  CPP score (conditioned place preference test): significantly increased the CPP score
[4]
  effective oral doses in patients with depression: 0.5 mg/kg
[5]
  Morphine Seizures, dose: 0.3 mg/kg
[6]
  Ethanol Tolerance, dose blocking development of tolerance: 1 - tilt-plane test mg/kg

## COC(=O)[C@H]1[C@@H](OC(=O)c2ccccc2)C[C@@H]2CC[C@H]1N2C [Cocaine, cocaine]
[7]; rats, 10 mg/kg
  ICSS frequency-rate response curve: shifts the frequency curve to the left

## N[C@@]1(c2ccccc2Cl)CCC[C@@H](O)C1=O [R-hydroxynorketamine]
[7]; [9]
  M50, Test, mean log M50 frequency (SEM): 2.00 (0.01) log/Hz
  Threshold (T0), Test, mean log T0 frequency (SEM): 1.92 (0.02) log/Hz
[7]; [10]
  M50, Test, mean log M50 frequency (SEM): 2.00 (0.01) log/Hz
  Threshold (T0), Test, mean log T0 frequency (SEM): 1.90 (0.02) log/Hz
[7]; [11]
  M50, Test, mean log M50 frequency (SEM): 1.99 (0.02) log/Hz
  Threshold (T0), Test, mean log T0 frequency (SEM): 1.91 (0.03) log/Hz
[7]; [12]
  M50, Baseline, mean log M50 frequency (SEM): 2.00 (0.02) log/Hz
  Threshold (T0), Baseline, mean log T0 frequency (SEM): 1.89 (0.02) log/Hz
[7]; [13]
  M50, Baseline, mean log M50 frequency (SEM): 1.98 (0.01) log/Hz
  Threshold (T0), Baseline, mean log T0 frequency (SEM): 1.89 (0.02) log/Hz
[7]; [14]
  M50, Baseline, mean log M50 frequency (SEM): 1.99 (0.02) log/Hz
  Threshold (T0), Baseline, mean log T0 frequency (SEM): 1.90 (0.02) log/Hz
[7]; rats, 3, 10 or 30 mg/kg i.p. 2 hours prior to test session, vs saline vehicle
  ICSS frequency-rate response curve: did not alter the frequency-response function

## CC(Oc1c(Cl)cccc1Cl)C1=NCCN1 (stereo not drawn) [lofexidine, Lofexidine]
[8]
  overall morphine withdrawal scores (naloxone-precipitated withdrawal signs): significantly attenuated the naloxone-induced withdrawal signs; also recorded: effective
